In PubChem BioAssay AID977613 (Broad Institute, 2014) one finds active concentration data, which are given here for 46 molecules.

Active and inactive are the calls of the source. The rule behind the calls is not given here. Some results are limits rather than exact numbers.

For the test, the system named is Broad 7084-01 inhibitor HTS, set 2. Description: inhibitors in Broad screen 7084-01, set 2 (AID 977613).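 Note: host cells are infected with parasite promastigotes that become internalized.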

As for `O=C(Nc1cccc(Cl)c1)N1C[C@@H]2[C@H](c3ccccc31)[C@@H](CO)N2CC1CCOCC1`, the active concentration is > 10 µM (inactive).
In the case of `COc1ccccc1CNC(=O)C[C@@H]1CC[C@@H]2[C@H](COC[C@H](O)CN2C(=O)Nc2ccccc2)O1` it was > 10 µM (inactive).
With `CS(=O)(=O)N1[C@H](CO)[C@@H](c2ccccc2)C12CN(Cc1ccccn1)C2`, the active concentration is > 10 µM (inactive).
With `CN1C(=O)c2cc(NS(C)(=O)=O)ccc2OC[C@@H]2O[C@@H](CC(=O)NC3CCCCC3)CC[C@H]21`, the active concentration is > 10 µM (inactive).
For the molecule `C/C=C/c1ccc([C@@H]2[C@@H](CO)N3C(=O)CN(Cc4ccc(F)cc4)C[C@@H]23)cc1`, the active concentration is > 10 µM (inactive).
For `COc1ccc2c3c(n(C)c2c1)[C@@H](CO)N(CC1CCOCC1)CC31CN(Cc2nccs2)C1` the value was > 10 µM (inactive).
Regarding `COc1ccccc1NC(=O)N1CC(=O)N2[C@H](CO)[C@H](c3ccc(-c4cccc(C)c4)cc3)[C@@H]2C1`, the active concentration was > 10 µM (inactive).
In the case of `O=C1CNC[C@H]2[C@H](c3ccc(C4=CCCC4)cc3)[C@H](CO)N12` it was > 10 µM (inactive); in that of `COC(=O)C[C@H]1CC[C@@H]2[C@@H](COc3ccc(NS(=O)(=O)c4ccccc4Cl)cc3C(=O)N2C)O1`, > 10 µM (inactive); in that of `O=S(=O)(c1cccs1)N1CCCCN2[C@@H](CO)[C@@H](c3ccc(/C=C/c4ccccc4)cc3)[C@@H]2C1`, > 10 µM (inactive).
Take `O=C(Nc1nccs1)[C@@H]1[C@@H](CO)[C@@H]2Cn3c(cccc3=O)[C@H]1N2C(=O)C1CCCC1`: the active concentration is > 10 µM (inactive).
For `O=C(C[C@@H]1CC[C@@H]2[C@H](COC[C@@H](O)CN2S(=O)(=O)c2cccc(Cl)c2)O1)Nc1ccc(-c2ccccc2)cc1` the value was > 10 µM (inactive).
For `CN(C)C(=O)C[C@H]1CC[C@@H]2[C@H](COC[C@@H](O)CN2C(=O)C2CC2)O1` the value was > 10 µM (inactive); for `CCNC(=O)Nc1ccc2c(c1)C(=O)N(C)[C@@H]1CC[C@@H](CC(=O)N[C@H](C)c3ccccc3)O[C@H]1CO2`, > 10 µM (inactive).
For `O=C(C[C@H]1CC[C@@H]2[C@H](COC[C@H](O)CN2CCc2ccccc2)O1)NCc1ccc(F)cc1` the value was > 10 µM (inactive); for `COc1ccc(-c2ccccc2[C@@H]2[C@@H](CO)N(C(=O)NC(C)C)[C@H]2C#N)cc1`, > 10 µM (inactive); for `Cc1ccc(S(=O)(=O)N2CC[C@@H]3[C@H]2c2cc(C#Cc4ccc(F)cc4)ccc2N[C@@H]3CO)cc1`, > 10 µM (inactive).
As for `C[C@@H](O)C#Cc1ccc([C@@H]2[C@@H](CO)N3CCCCN(C(=O)c4ccc5c(c4)OCO5)C[C@H]23)cc1`, the active concentration is > 10 µM (inactive).
For the molecule `COc1ccc2c3c(n(C)c2c1)[C@H](CO)N(C(=O)Nc1ccc(F)cc1)CC31CN(C(=O)Cc2ccncc2)C1`, the active concentration is > 10 µM (inactive).
In the case of `C/C=C/c1ccc([C@H]2[C@@H](CO)N(C(C)=O)C23CN(C(=O)c2ccc(F)cc2)C3)cc1` it was > 10 µM (inactive); in that of `O=C(C[C@@H]1CC[C@@H]2[C@H](COC[C@@H](O)CN2C(=O)Nc2ccc(Cl)c(Cl)c2)O1)NCc1ccc(Cl)cc1`, > 10 µM (inactive); in that of `N#C[C@H]1[C@H](c2ccccc2-c2ccccc2F)[C@H](CO)N1C(=O)C1CCC1`, > 10 µM (inactive).
For the molecule `O=C(C[C@@H]1CC[C@H]2[C@@H](COC[C@@H](O)CN2Cc2cc(F)cc(F)c2)O1)NC1CCC1`, the active concentration is > 10 µM (inactive).
In the case of `CCS(=O)(=O)N1CC2(CN(Cc3cc(F)ccc3F)[C@H](CO)c3c2c2ccc(OC)cc2n3C)C1` it was > 10 µM (inactive); in that of `CCS(=O)(=O)N1[C@H](CO)[C@@H](c2ccccc2)C12CN(C(=O)C1CCCCC1)C2`, > 10 µM (inactive); in that of `COc1cccc(S(=O)(=O)N2CCCCN3[C@H](C2)[C@H](c2ccc(C#CCC(C)C)cc2)[C@@H]3CO)c1`, > 10 µM (inactive).
For `O=C(c1cccnc1)N1C[C@H]2[C@@H](c3ccccc31)[C@@H](CO)N2C(=O)CN1CCOCC1` the value was > 10 µM (inactive); for `CC(C)NC(=O)N1C[C@@H]2[C@H](c3ccccc31)[C@@H](CO)N2Cc1ccccn1`, less than 10 µM; for `N#C[C@@H]1[C@@H](c2ccccc2C2=CCCCC2)[C@@H](CO)N1S(=O)(=O)c1cccc(F)c1`, > 10 µM (inactive).
Turning to `O=C(C[C@H]1CC[C@@H]2[C@H](COC[C@@H](O)CN2CC2CC2)O1)NCc1ccc(Cl)cc1`, the active concentration was > 10 µM (inactive).
Consider `O=S(=O)(c1ccc(F)cc1)N1CCCCN2[C@H](CO)[C@@H](c3ccc(-c4cncnc4)cc3)[C@H]2C1`, for which the active concentration was > 10 µM (inactive).
In the case of `O=C(Cc1ccccn1)N1CC[C@@H]2[C@H](CO)Nc3ccc(-c4cccc(F)c4)cc3[C@@H]21` it was > 10 µM (inactive).
For `O=C(C[C@@H]1CC[C@@H]2[C@H](COC[C@H](O)CN2Cc2ccc3c(c2)OCO3)O1)Nc1ccccc1` the value was > 10 µM (inactive); for `N#C[C@@H]1[C@H](c2ccccc2C2=CCCCC2)[C@H](CO)N1C(=O)Nc1ccccc1F`, > 10 µM (inactive); for `CN1C(=O)c2cc(NS(C)(=O)=O)ccc2OC[C@H]2O[C@@H](CC(=O)N3CCOCC3)CC[C@@H]21`, > 10 µM (inactive).
Regarding `CC(=O)N1CCCCN2[C@H](CO)[C@H](c3ccc(-c4ccccc4)cc3)[C@H]2C1`, the active concentration was > 10 µM (inactive).
For `O=C(Nc1ccc(F)cc1)N1CC(=O)N2[C@H](CO)[C@@H](c3ccc(C#Cc4cccnc4)cc3)[C@H]2C1` the value was > 10 µM (inactive).
Take `O=C(C1CCOCC1)N1C[C@H]2[C@@H](c3ccccc31)[C@H](CO)N2C(=O)Cc1ccccc1`: the active concentration is > 10 µM (inactive).
For `O=C(c1ccncc1)N1C[C@H]2[C@@H](c3ccccc31)[C@@H](CO)N2Cc1ccccc1F` the value was > 10 µM (inactive).
For `CCCC#Cc1ccc([C@@H]2[C@@H](CO)N3C(=O)CN(S(=O)(=O)c4ccccc4C)C[C@H]23)cc1` the value was > 10 µM (inactive).
As to `Cc1ccc(NC(=O)Nc2ccc3c(c2)C(=O)N(C)[C@@H]2CC[C@H](CC(=O)NCC(F)(F)F)O[C@@H]2CO3)cc1`, the active concentration was > 10 µM (inactive).
For the molecule `C[C@H](NC(=O)[C@H]1[C@H](CO)[C@H]2Cn3c(ccc(/C=C/c4ccccc4)c3=O)[C@@H]1N2)c1ccccc1`, the active concentration was > 10 µM (inactive).
With `COc1cccc(NC(=O)N2C[C@@H](O)COC[C@@H]3O[C@@H](CC(=O)NC4CCC4)CC[C@H]32)c1`, the active concentration was > 10 µM (inactive).
In the case of `CCS(=O)(=O)N1CCC2(CC1)CN(C(=O)Nc1c(C)noc1C)[C@H](CO)c1c2c2ccc(OC)cc2n1C` it was > 10 µM (inactive); in that of `Cc1ccccc1-c1ccc([C@H]2[C@H](CO)N3C(=O)CN(S(C)(=O)=O)C[C@@H]23)cc1`, > 10 µM (inactive).
With `O=C([C@@H]1N[C@@H]2c3ccc(-c4ccccc4F)c(=O)n3C[C@@H]2[C@H]1CO)N1CCc2ccccc2C1`, the active concentration was > 10 µM (inactive).
